Results taken from patent publication US12540131B2 (Merck Sharp & Dohme LLC, priority 2019, dated 2026).

Biological target: GST tagged truncated human mutant G2019S LRRK2 (Homo sapiens (Human), UniProt Q5S007, G2019S)
Experiment: LRRK2 Km ATP LanthaScreen Assay
Type: biochemical
Conditions: G2019S LRRK2, 134 μM ATP (Km ATP), mean values
How it was run: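 Enzyme (GST-tagged, truncated) was preincubated with compound for 15 min at RT in 50 mM Tris pH 8.5, 10 mM MgCl2, 0.01% Brij-35, 1 mM EGTA, 2 mM DTT and 0.05 mM orthovanadate. Fluorescein-LRRKtide and 134 μM ATP (Km) were then added for 90 min. EDTA and Tb-anti-pERM antibody stopped the reaction; the TR-FRET 520/495 ratio gave 4-parameter IC50s, reported as mean pIC50.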

GST tagged truncated human mutant G2019S LRRK2, sequence (Q5S007 970-2527 G2019S): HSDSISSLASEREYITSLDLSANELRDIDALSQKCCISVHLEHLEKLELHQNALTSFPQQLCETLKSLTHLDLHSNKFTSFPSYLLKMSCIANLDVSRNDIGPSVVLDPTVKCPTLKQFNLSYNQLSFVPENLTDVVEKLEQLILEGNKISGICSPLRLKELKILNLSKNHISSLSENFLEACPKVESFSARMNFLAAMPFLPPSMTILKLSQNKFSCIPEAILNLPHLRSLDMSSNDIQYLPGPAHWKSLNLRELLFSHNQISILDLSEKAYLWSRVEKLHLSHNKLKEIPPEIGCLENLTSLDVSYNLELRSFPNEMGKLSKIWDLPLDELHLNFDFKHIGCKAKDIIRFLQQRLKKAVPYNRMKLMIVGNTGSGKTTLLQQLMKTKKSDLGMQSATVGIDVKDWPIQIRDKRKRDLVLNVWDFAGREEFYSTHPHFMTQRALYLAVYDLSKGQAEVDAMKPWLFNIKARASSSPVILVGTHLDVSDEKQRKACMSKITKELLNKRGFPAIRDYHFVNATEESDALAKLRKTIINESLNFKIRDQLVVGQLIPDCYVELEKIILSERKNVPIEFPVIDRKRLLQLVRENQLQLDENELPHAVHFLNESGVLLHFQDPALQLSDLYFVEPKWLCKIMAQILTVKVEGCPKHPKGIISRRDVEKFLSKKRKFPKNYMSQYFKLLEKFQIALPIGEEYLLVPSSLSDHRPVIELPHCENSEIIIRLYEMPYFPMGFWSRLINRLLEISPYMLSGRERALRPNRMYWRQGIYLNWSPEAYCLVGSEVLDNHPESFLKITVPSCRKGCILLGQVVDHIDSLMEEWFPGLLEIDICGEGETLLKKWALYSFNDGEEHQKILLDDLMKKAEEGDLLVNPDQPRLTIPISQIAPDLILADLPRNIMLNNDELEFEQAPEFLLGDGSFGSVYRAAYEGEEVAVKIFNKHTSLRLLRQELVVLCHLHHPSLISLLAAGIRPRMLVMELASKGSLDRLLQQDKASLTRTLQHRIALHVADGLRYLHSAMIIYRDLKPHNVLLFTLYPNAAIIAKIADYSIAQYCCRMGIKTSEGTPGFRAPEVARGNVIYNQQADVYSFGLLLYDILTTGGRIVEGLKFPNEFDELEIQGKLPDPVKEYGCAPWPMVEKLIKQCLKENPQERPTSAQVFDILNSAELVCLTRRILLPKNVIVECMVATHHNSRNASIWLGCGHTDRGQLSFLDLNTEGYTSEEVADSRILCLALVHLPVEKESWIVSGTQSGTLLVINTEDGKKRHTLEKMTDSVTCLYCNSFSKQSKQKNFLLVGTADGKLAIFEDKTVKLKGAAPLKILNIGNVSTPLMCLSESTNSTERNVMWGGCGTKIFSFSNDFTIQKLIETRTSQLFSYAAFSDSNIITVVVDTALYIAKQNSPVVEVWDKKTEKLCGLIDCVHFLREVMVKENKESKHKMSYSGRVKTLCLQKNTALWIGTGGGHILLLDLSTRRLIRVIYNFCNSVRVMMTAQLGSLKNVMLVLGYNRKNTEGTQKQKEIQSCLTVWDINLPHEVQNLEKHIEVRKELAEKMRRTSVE

Structure (SMILES) | IC50 (read-out: LRRK2 pIC50 (converted)) [nM] | LRRK2 pIC50
CC1(C)CC(N2CCC(c3cc4nc(Nc5cnn(C6CC6)c5Cl)ncc4cc3Cl)CC2)CO1 (single isomer, unassigned) [Ex-4.117, (R) or (S) 6-chloro-N-(5-chloro-1-cyclopropyl-1H-pyrazol-4-yl)-7-(1-(5,5-dimethyltetrahydrofuran-3-yl)piperidin-4-yl)quinazolin-2-amine] | < 0.631 | 
Cc1nsc(Nc2ncc3cc(Cl)c([C@@H]4CCN(C5COC[C@@H]5O)C[C@H]4F)cc3n2)c1Cl (single isomer, unassigned) [Ex-4.120, (3S,4S)(3S,4S) or (3S,4S)(3R,4R) or (3R,4R)(3S,4S) or (3R,4R)(3R,4R) 4-{6-chloro-2-[(4-chloro-3-methyl-1,2-thiazol-5-yl)amino]quinazolin-7-yl}-3-fluoropiperidin-1-yl]oxolan-3-ol] |  | 7.65
Cc1nsc(Nc2ncc3cc(Cl)c([C@@H]4CCN(C5COC[C@H]5O)C[C@H]4F)cc3n2)c1Cl (single isomer, unassigned) [Ex-4.121, (3S,4S)(3S,4S) or (3S,4S)(3R,4R) or (3R,4R)(3S,4S) or (3R,4R)(3R,4R) 4-{6-chloro-2-[(4-chloro-3-methyl-1,2-thiazol-5-yl)amino]quinazolin-7-yl}-3-fluoropiperidin-1-yl]oxolan-3-ol] |  | 8.92
O[C@H]1COCC1N1CC[C@@H](c2cc3nc(Nc4cnn(C5CC5)c4Cl)ncc3cc2Cl)[C@H](F)C1 (single isomer, unassigned) [Ex-4.122, (3S,4S)(3S,4S) or (3S,4S)(3R,4R) or (3R,4R)(3S,4S) or (3R,4R)(3R,4R) 4-{6-chloro-2-[(5-chloro-1-cyclopropyl-1H-pyrazol-4-yl)amino]quinazolin-7-yl}-3-fluoropiperidin-1-yl]oxolan-3-ol] |  | >9.20
O[C@@H]1COCC1N1CC[C@@H](c2cc3nc(Nc4cnn(C5CC5)c4Cl)ncc3cc2Cl)[C@H](F)C1 (single isomer, unassigned) [Ex-4.123, (3S,4S)(3S,4S) or (3S,4S)(3R,4R) or (3R,4R)(3S,4S) or (3R,4R)(3R,4R) 4-{6-chloro-2-[(5-chloro-1-cyclopropyl-1H-pyrazol-4-yl)amino]quinazolin-7-yl}-3-fluoropiperidin-1-yl]oxolan-3-ol] |  | 8.37
O=S1(=O)CC(N2CC[C@@H](c3cc4nc(Nc5cnn(C6CC6(F)F)c5Cl)ncc4cc3Cl)[C@H](F)C2)C1 (single isomer, unassigned) [Ex-4.124, (S)(3S,4S) or (S)(3R,4R) or (R)(3S,4S) or (R)(3R,4R) 3-[4-(6-chloro-2-{[5-chloro-1-(2,2-difluorocyclopropyl)-1H-pyrazol-4-yl]amino}quinazolin-7-yl)-3-fluoropiperidin-1-yl]thietane 1,1-dioxide] |  | 8.91
O[C@@H]1COCC1N1CC[C@H](c2cc3nc(Nc4cnn(C5CC5(F)F)c4Cl)ncc3cc2Cl)[C@@H](F)C1 (single isomer, unassigned) [Ex-4.125, (R)(3S,4S)(3S,4S) or (R)(3S,4S)(3R,4R) or (R)(3R,4R)(3S,4S) or (R)(3R,4R)(3R,4R) or (S)(3S,4S)(3S,4S) or (S)(3S,4S)(3R,4R) or (S)(3R,4R)(3S,4S) or (S)(3R,4R)(3R,4R) 4-(6-chloro-2-{[5-chloro-1-(2,2-difluorocyclopropyl)-1H-pyrazol-4-yl]amino}quinazolin-7-yl)-3-fluoropiperidin-1-yl]oxolan-3-ol] |  | 8.16
Cc1c(Nc2ncc3cc(Cl)c(C4C[C@H]5C[C@@H]4CN5C4COC4)cc3n2)cnn1C1CC1 (single isomer, unassigned) [Ex-4.126, (1S,4S) or (1R,4R) 6-chloro-N-(1-cyclopropyl-5-methyl-1H-pyrazol-4-yl)-7-[2-(oxetan-3-yl)-2-azabicyclo[2.2.1]heptan-5-yl]quinazolin-2-amine] |  | 7.64
Cc1c(Nc2ncc3cc(Cl)c([C@@H]4CCN(C5COC[C@@H]5O)C[C@H]4F)cc3n2)cnn1C1CC1 (single isomer, unassigned) [Ex-4.127, (3S,4S)(3S,4S) or (3S,4S)(3R,4R) or (3R,4R)(3S,4S) or (3R,4R)(3R,4R) 4-[4-{6-chloro-2-[(1-cyclopropyl-5-methyl-1H-pyrazol-4-yl)amino]quinazolin-7-yl}-3-fluoropiperidin-1-yl]oxolan-3-ol] |  | >9.20
Cc1c(Nc2ncc3cc(Cl)c([C@@H]4CCN(C5COC[C@H]5O)C[C@H]4F)cc3n2)cnn1C1CC1 (single isomer, unassigned) [Ex-4.128, (3S,4S)(3S,4S) or (3S,4S)(3R,4R) or (3R,4R)(3S,4S) or (3R,4R)(3R,4R) 4-[4-{6-chloro-2-[(1-cyclopropyl-5-methyl-1H-pyrazol-4-yl)amino]quinazolin-7-yl}-3-fluoropiperidin-1-yl]oxolan-3-ol] |  | 8.99
Cc1c(Nc2ncc3cc(Cl)c(C4CCN(C5COC[C@H]5O)[C@@H](C)C4)cc3n2)cnn1C1CC1 (single isomer, unassigned) [Ex-4.129, (3S,4S)(2S,4R) or (3S,4S)(2S,4S) or (3R,4R)(2S,4R) or (3R,4R)(2S,4S) (3 4-[4-{6-chloro-2-[(1-cyclopropyl-5-methyl-1H-pyrazol-4-yl)amino]quinazolin-7-yl}-2-methylpiperidin-1-yl]oxolan-3-ol] |  | >9.20
Cc1c(Nc2ncc3cc(Cl)c(C4CCN(C5COC[C@@H]5O)[C@@H](C)C4)cc3n2)cnn1C1CC1 (single isomer, unassigned) [Ex-4.130, (3S,4S)(2S,4R) or (3S,4S)(2S,4S) or (3R,4R)(2S,4R) or (3R,4R)(2S,4S) (3 4-[4-{6-chloro-2-[(1-cyclopropyl-5-methyl-1H-pyrazol-4-yl)amino]quinazolin-7-yl}-2-methylpiperidin-1-yl]oxolan-3-ol] |  | 8.97
Cc1c(Nc2ncc3cc(Cl)c(C4CCN([C@@H]5COC[C@@H]5O)CC4)cc3n2)cnn1C1CC1 (single isomer, unassigned) [Ex-4.131, (3S,4S) or (3R,4R) 4-(4-{6-chloro-2-[(1-cyclopropyl-5-methyl-1H-pyrazol-4-yl)amino]quinazolin-7-yl}piperidin-1-yl)oxolan-3-ol] |  | 8.62
Cc1c(Nc2ncc3cc(Cl)c(C4CCN([C@H]5COC[C@H]5O)CC4)cc3n2)cnn1C1CC1 (single isomer, unassigned) [Ex-4.132, (3S,4S) or (3R,4R) 4-(4-{6-chloro-2-[(1-cyclopropyl-5-methyl-1H-pyrazol-4-yl)amino]quinazolin-7-yl}piperidin-1-yl)oxolan-3-ol] |  | >9.20
Cc1c(Nc2ncc3cc(Cl)c(C4CCN(C5COC5C)CC4)cc3n2)cnn1C(C)(C)C#N (single isomer, unassigned) [Ex-4.133, (2R,3R) or (2S,3S) or (2S,3R) or (2R,3S) 2-[4-({6-chloro-7-[1-(2-methyloxetan-3-yl)piperidin-4-yl]quinazolin-2-yl}amino)-5-methyl-1H-pyrazol-1-yl]-2-methylpropanenitrile] |  | 8.92
Cc1c(Nc2ncc3cc(Cl)c(C4CCN(C5COC5C)CC4)cc3n2)cnn1C(C)(C)C#N (single isomer, unassigned) [Ex-4.134, (2R,3R) or (2S,3S) or (2S,3R) or (2R,3S) 2-[4-({6-chloro-7-[1-(2-methyloxetan-3-yl)piperidin-4-yl]quinazolin-2-yl}amino)-5-methyl-1H-pyrazol-1-yl]-2-methylpropanenitrile] |  | >9.20
Cc1cc2cnc(Nc3cnn(C4CC4)c3Cl)nc2cc1[C@@H]1CCN(C2COC[C@@H]2O)C[C@H]1F (single isomer, unassigned) [Ex-4.135, (3S,4S)(3S,4S) or (3S,4S)(3R,4R) or (3R,4R)(3S,4S) or (3R,4R)(3R,4R) 4-(4-{2-[(5-chloro-1-cyclopropyl-1H-pyrazol-4-yl)amino]-6-methylquinazolin-7-yl}-3-fluoropiperidin-1-yl)oxolan-3-ol] |  | >9.20
Cc1cc2cnc(Nc3cnn(C4CC4)c3Cl)nc2cc1[C@@H]1CCN(C2COC[C@H]2O)C[C@H]1F (single isomer, unassigned) [Ex-4.136, (3S,4S)(3S,4S) or (3S,4S)(3R,4R) or (3R,4R)(3S,4S) or (3R,4R)(3R,4R) 4-(4-{2-[(5-chloro-1-cyclopropyl-1H-pyrazol-4-yl)amino]-6-methylquinazolin-7-yl}-3-fluoropiperidin-1-yl)oxolan-3-ol] |  | 8.41
Cc1cc2cnc(Nc3cnn(C4CC4(F)F)c3Cl)nc2cc1[C@@H]1CCN(C2COC[C@@H]2O)C[C@H]1F (single isomer, unassigned) [Ex-4.137, (R)(3S,4S)(3S,4S) or (R)(3S,4S)(3R,4R) or (R)(3R,4R)(3S,4S) or (R)(3R,4R)(3R,4R) or (S)(3S,4S)(3S,4S) or (S)(3S,4S)(3R,4R) or (S)(3R,4R)(3S,4S) or (S)(3R,4R)(3R,4R) 4-[4-(2-{[5-chloro-1-(2,2-difluorocyclopropyl)-1H-pyrazol-4-yl]amino}-6-methylquinazolin-7-yl)-3-fluoropiperidin-1-yl]oxolan-3-ol] |  | >9.20
Cc1cc2cnc(Nc3cnn(C4CC4(F)F)c3Cl)nc2cc1[C@@H]1CCN(C2COC[C@H]2O)C[C@H]1F (single isomer, unassigned) [Ex-4.138, (R)(3S,4S)(3S,4S) or (R)(3S,4S)(3R,4R) or (R)(3R,4R)(3S,4S) or (R)(3R,4R)(3R,4R) or (S)(3S,4S)(3S,4S) or (S)(3S,4S)(3R,4R) or (S)(3R,4R)(3S,4S) or (S)(3R,4R)(3R,4R) 4-[4-(2-{[5-chloro-1-(2,2-difluorocyclopropyl)-1H-pyrazol-4-yl]amino}-6-methylquinazolin-7-yl)-3-fluoropiperidin-1-yl]oxolan-3-ol] |  | 8.44
